PubChem BioAssay (NCI)
Values joined by “and” are separate entries in the source; they are usually repeats but may differ in a detail not shown here. Equal entries are not always repeated.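 A five-concentration, 48-hour dose response in 96-well plates underlies each endpoint, interpolated linearly between surrounding concentrations. Here, GI50 denotes the concentration required for 50% inhibition of growth. At the TGI there is no net growth.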

Tests used:
Test in all cases: NCI tumour cell line growth inhibition, 48 h
UO-31 renal = system: UO-31 renal
M14 melanoma = system: M14 melanoma
LOX IMVI melanoma = system: LOX IMVI melanoma
HCC-2998 colon = system: HCC-2998 colon
OVCAR-5 ovarian = system: OVCAR-5 ovarian
SR leukemia = system: SR leukemia
NCI/ADR-RES ovarian = system: NCI/ADR-RES ovarian
RXF 393 renal = system: RXF 393 renal

| Structure (SMILES) | GI50 (UO-31 renal) [nM] | TGI (UO-31 renal) | GI50 (M14 melanoma) [nM] | TGI (M14 melanoma) [µM] | GI50 (LOX IMVI melanoma) [nM] | TGI (LOX IMVI melanoma) | GI50 (HCC-2998 colon) | TGI (HCC-2998 colon) [µM] | GI50 (OVCAR-5 ovarian) | TGI (OVCAR-5 ovarian) [µM] | GI50 (SR leukemia) [nM] | TGI (SR leukemia) [µM] | GI50 (NCI/ADR-RES ovarian) [nM] | TGI (NCI/ADR-RES ovarian) [µM] | GI50 (RXF 393 renal) [nM] | TGI (RXF 393 renal) |
| --- | --- | --- | --- | --- | --- | --- | --- | --- | --- | --- | --- | --- | --- | --- | --- | --- |
| COc1ccc(NC(=O)Nc2n[nH]c3ccccc23)cc1 | > 100000 | > 100 µM | > 100000 | > 100 | > 100000 | > 100000 nM | > 100000 nM | > 100 | > 100000 nM | > 100 | > 100000 | > 100 | > 100000 | > 100 | > 100000 | > 100000 nM |
| Cc1cc([C@@H](C)Nc2ccccc2C(=O)O)c2nc(N3CCOCC3)cc(=O)n2c1 | 2430 | > 10 µM | > 10000 | > 10 | 6730 | > 10000 nM | > 10000 nM | > 10 | > 10000 nM | > 10 |  |  | > 10000 | > 10 | 56.4 | 1330 nM |
| COc1cc(/C=C\[N+](=O)[O-])ccc1O | 1480 | 3.25 µM | 2050 | 4.98 | 1740 | 3390 nM | 1980 nM | 3.63 | 3940 nM | 14.5 | 987 | 38.5 | 2840 | 7.95 | 1910 | 3480 nM |
| O=C(Nc1cccc(-n2ccc3c(NC(=O)c4ccccc4)nccc32)c1)c1cccc(C(F)(F)F)c1 | 312 | 16 µM |  |  | 83.8 | 2780 nM | 36.2 nM | > 66.3 | 239 nM | > 100 | 28.4 |  | 32.7 | > 100 | 18.7 | 44.2 nM |
| CCc1c2c(nc3cc4c(cc13)OCO4)-c1cc3c(c(=O)n1C2)COC(=O)[C@]3(O)CC | 10.3 | 0.401 µM and 0.0689 µM | < 1 | > 100 | 1.97 | 122 nM and 520 nM | 44.3 nM and 361 nM | > 100 | 885 nM and 313 nM | 2.27 | < 1 |  |  |  |  | 117 nM and 478 nM |
| CC1(C)N=C(N)N=C(N)N1c1ccc(CCCCc2ccc(S(=O)(=O)F)cc2)cc1 | 35100 | > 100 µM | 1160 | 23.3 | 488 | 15000 nM | 4550 nM | 26.7 | 2620 nM | > 100 | 580 | 25.8 | > 90200 | > 100 | 790 | > 100000 nM |
| N#Cc1c(NC(=O)c2cccc(C(F)(F)F)c2)sc2c1CCC(=O)C2 | 355 | 1.38 µM | 525 | 2.22 | 369 | 1680 nM | 1610 nM | 3.37 | 1140 nM | 3.97 | 347 | > 31.8 | 1620 | 7.77 | 391 | 1450 nM |
| CCOc1ccc(S(=O)(=O)/N=C2\C=C(SCC(=O)O)C(=O)c3ccccc32)cc1 | 4130 | 15.8 µM | 2720 | 8.12 | 2310 | 10200 nM | 14800 nM | 28.2 | 5500 nM | 25.1 | 538 | 5.26 | 3260 | 13.5 | 1800 | 7230 nM |
| Cc1cc2nc3c4cc(Cl)ccc4n(CCN(C)C)c3nc2cc1C | 389 | 3.35 µM | 1490 | 2.93 | 1130 | 2370 nM | 1350 nM | 2.74 | 2000 nM | 5.2 | 682 | 2.88 | 1070 | 5.04 | 1590 | 3320 nM |
| C[C@@H]1CC[C@H]2C(COCC3=C(C(F)(F)F)O[C@@H]4O[C@@]5(C)CC[C@H]6[C@H](C)CC[C@@H]3[C@@]46OO5)=C(C(F)(F)F)O[C@@H]3O[C@@]4(C)CC[C@@H]1[C@]32OO4 | < 10 | > 100 µM |  |  |  |  |  |  | 10.1 nM | > 100 | < 10 | > 100 | 543 | > 100 |  |  |
| C=C1C(=O)O[C@H]2[C@H]1CC/C(CNC(=O)c1c[nH]c3ccc(F)cc13)=C\CC[C@@]1(C)O[C@@H]21 | 1140 | 2.48 µM | 1040 | 2.33 | 731 | 2140 nM | 1840 nM | 3.44 | 1900 nM | 4.82 | 1010 | 4.78 | 4130 | 19.3 | 522 | 1750 nM |
